# Measured values reported in patent US6737383B1, “Herbicidal oxadiazolidines” (priority 1999, dated 2004).
# What was measured:
# cocklebur = experiment: Test B pre/postemergence cocklebur; type: in vivo, Xanthium strumarium
# Procedure, shortened: (§1)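 Herbicidal effect was estimated by eye on a ten-point control scale after plants spent twelve to sixteen days in a greenhouse following soil or foliar treatment. Foliar sprays targeted plants at one to four leaves; all doses were formulated in a non-phytotoxic solvent with surfactant.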
# blackgrass = experiment: Test B pre/postemergence blackgrass; type: in vivo, Alopecurus myosuroides
# Procedure, shortened: as §1
# soybean = experiment: Test B pre/postemergence soybean; type: in vivo, Glycine max
# Procedure, shortened: as §1
# giant foxtail = experiment: Test B pre/postemergence giant foxtail; type: in vivo, Setaria faberii
# Procedure, shortened: as §1
# sugar beet = experiment: Test B pre/postemergence sugar beet; type: in vivo, Beta vulgaris
# Procedure, shortened: as §1
# smallflower flatsedge = experiment: Test B flood test smallflower flatsedge; type: in vivo, Cyperus difformis
# Procedure, shortened: (§2)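 Flood test on plants grown to the 2-leaf stage; treated plants kept in greenhouse twelve to sixteen days, then visually rated against controls on a 0 (no effect) to 10 (complete control) scale.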
# rice = experiment: Test B flood test rice; type: in vivo, Oryza sativa
# Procedure, shortened: as §2
# wild oat = experiment: Test B pre/postemergence wild oat; type: in vivo, Avena fatua
# Procedure, shortened: as §1
# velvetleaf = experiment: Test B pre/postemergence velvetleaf; type: in vivo, Abutilon theophrasti
# Procedure, shortened: as §1
# bedstraw = experiment: Test B pre/postemergence bedstraw; type: in vivo, Galium aparine; conditions: Postemergence
# Procedure, shortened: as §1
# morningglory = experiment: Test B pre/postemergence morningglory; type: in vivo, Ipomoea hederacea
# Procedure, shortened: as §1
# surinam grass = experiment: Test B pre/postemergence surinam grass; type: in vivo, Brachiaria decumbens
# Procedure, shortened: as §1
# corn = experiment: Test B pre/postemergence corn; type: in vivo, Zea mays
# Procedure, shortened: as §1
# wheat = experiment: Test B pre/postemergence wheat; type: in vivo, Triticum aestivum
# Procedure, shortened: as §1
# pigweed = experiment: Test B pre/postemergence pigweed; type: in vivo, Amaranthus retroflexus
# Procedure, shortened: as §1
# rape = experiment: Test B pre/postemergence rape; type: in vivo, Brassica napus
# Procedure, shortened: as §1
# [1] = Postemergence, Rate 62 g/ha, scale 0 to 10, 0 is no effect, 10 is complete control
# [2] = Postemergence, Rate 125 g/ha, scale of 0 to 10 where 0 is no effect and 10 is complete control
# [3] = Postemergence, Rate 250 g/ha, scale of 0 to 10, 0 is no effect, 10 is complete control
# [4] = Postemergence, Rate 500 g/ha, scale of 0 to 10 where 0 is no effect and 10 is complete control
# [5] = Preemergence, Rate 62 g/ha, scale 0 to 10 (0 no effect, 10 complete control)
# [6] = Preemergence, Rate 125 g/ha, scale of 0 to 10 where 0 is no effect and 10 is complete control
# [7] = Preemergence, Rate 250 g/ha, scale 0 to 10 (0 no effect, 10 complete control)
# [8] = Preemergence, Rate 500 g/ha, scale of 0 to 10 where 0 is no effect and 10 is complete control
# [9] = Rate 62 g/ha, flood test species, Pre-emergence, visual evaluation after twelve to sixteen days
# [10] = Rate 125 g/ha, under heading Pre-emergence, flood test species, visual evaluation after twelve to sixteen days
# [11] = Rate 250 g/ha, Pre-emergence (flood test species), scale 0 to 10, 0 is no effect, 10 is complete control
# [12] = Rate 500 g/ha, Pre-emergence section of Table B, 0 to 10 scale (0 no effect, 10 complete control)
compound,measurement,setting,value
CCOC(Cn1c(=O)on(C(=O)N(c2ccccc2)C(C)C)c1=O)OCC [Compound 632],"Plant response rating, Cocklebur",cocklebur; [1],0
same,"Plant response rating, Cocklebur",cocklebur; [2],0
same,Cocklebur plant response rating,cocklebur; [3],0
same,"Plant response rating, Cocklebur",cocklebur; [4],0
same,Cocklebur plant response rating,cocklebur; [5],0
same,Cocklebur plant response rating,cocklebur; [6],0
same,"Plant response rating, Cocklebur",cocklebur; [7],0
same,"Plant response rating, Cocklebur",cocklebur; [8],0
same,"Plant response rating, Blackgrass",blackgrass; [1],0
same,"Plant response rating, Blackgrass",blackgrass; [2],4
same,Blackgrass plant response rating,blackgrass; [3],6
same,"Plant response rating, Blackgrass",blackgrass; [4],8
same,Blackgrass plant response rating,blackgrass; [5],2
same,Blackgrass plant response rating,blackgrass; [6],4
same,"Plant response rating, Blackgrass",blackgrass; [7],7
same,"Plant response rating, Blackgrass",blackgrass; [8],10
same,"Plant response rating, Soybean",soybean; [1],1
same,"Plant response rating, Soybean",soybean; [2],2
same,Soybean plant response rating,soybean; [3],4
same,Soybean plant response rating,soybean; [5],0
same,Soybean plant response rating,soybean; [6],0
same,"Plant response rating, Soybean",soybean; [7],0
same,"Plant response rating, Soybean",soybean; [8],0
same,"Plant response rating, Giant foxtail",giant foxtail; [1],3
same,"Plant response rating, Giant foxtail",giant foxtail; [2],7
same,Giant foxtail plant response rating,giant foxtail; [3],8
same,"Plant response rating, Giant foxtail",giant foxtail; [4],9
same,Giant foxtail plant response rating,giant foxtail; [5],8
same,Giant foxtail plant response rating,giant foxtail; [6],10
same,"Plant response rating, Giant foxtail",giant foxtail; [7],10
same,"Plant response rating, Giant foxtail",giant foxtail; [8],10
same,"Plant response rating, Sugarbeets",sugar beet; [1],0
same,"Plant response rating, Sugarbeets",sugar beet; [2],0
same,Sugarbeets plant response rating,sugar beet; [3],0
same,Sugarbeets plant response rating,sugar beet; [5],0
same,Sugarbeets plant response rating,sugar beet; [6],0
same,"Plant response rating, Sugarbeets",sugar beet; [7],0
same,"Plant response rating, Sugarbeets",sugar beet; [8],0
same,"Plant response rating, S. Flatsedge (0 to 10 scale, 0 is no effect, 10 is complete control)",smallflower flatsedge; [9],0
same,"S. Flatsedge plant response rating (0 to 10 scale, 0 is no effect, 10 is complete control)",smallflower flatsedge; [10],0
same,S. Flatsedge plant response rating,smallflower flatsedge; [11],0
same,S. Flatsedge plant response rating,smallflower flatsedge; [12],0
same,"Plant response rating, Rice (0 to 10 scale, 0 is no effect, 10 is complete control)",rice; [9],0
same,"Rice plant response rating (0 to 10 scale, 0 is no effect, 10 is complete control)",rice; [10],0
same,Rice plant response rating,rice; [11],0
same,Rice plant response rating,rice; [12],0
same,"Plant response rating, Wild oats",wild oat; [1],0
same,"Plant response rating, Wild oats",wild oat; [2],0
same,Wild oats plant response rating,wild oat; [3],0
same,Wild oats plant response rating,wild oat; [5],0
same,Wild oats plant response rating,wild oat; [6],2
same,"Plant response rating, Wild oats",wild oat; [7],3
same,"Plant response rating, Wild oats",wild oat; [8],3
same,"Plant response rating, Velvetleaf",velvetleaf; [1],0
same,"Plant response rating, Velvetleaf",velvetleaf; [2],0
same,Velvetleaf plant response rating,velvetleaf; [3],0
same,Velvetleaf plant response rating,velvetleaf; [5],0
same,Velvetleaf plant response rating,velvetleaf; [6],1
same,"Plant response rating, Velvetleaf",velvetleaf; [7],6
same,"Plant response rating, Velvetleaf",velvetleaf; [8],7
same,"Plant response rating, Bedstraw","bedstraw; Rate 62 g/ha, scale 0 to 10, 0 is no effect, 10 is complete control",0
same,"Plant response rating, Bedstraw","bedstraw; Rate 125 g/ha, scale of 0 to 10 where 0 is no effect and 10 is complete control",0
same,Bedstraw plant response rating,"bedstraw; Rate 250 g/ha, scale of 0 to 10, 0 is no effect, 10 is complete control",0
same,"Plant response rating, Morningglory",morningglory; [1],1
same,"Plant response rating, Morningglory",morningglory; [2],1
same,Morningglory plant response rating,morningglory; [3],2
same,"Plant response rating, Morningglory",morningglory; [4],10
same,Morningglory plant response rating,morningglory; [5],0
same,Morningglory plant response rating,morningglory; [6],0
same,"Plant response rating, Morningglory",morningglory; [7],4
same,"Plant response rating, Morningglory",morningglory; [8],5
same,"Plant response rating, B. signalgrass",surinam grass; [1],0
same,"Plant response rating, B. signalgrass",surinam grass; [2],0
same,B. signalgrass plant response rating,surinam grass; [3],2
same,"Plant response rating, B. signalgrass",surinam grass; [4],6
same,B. signalgrass plant response rating,surinam grass; [5],0
same,B. signalgrass plant response rating,surinam grass; [6],3
same,"Plant response rating, B. signalgrass",surinam grass; [7],6
same,"Plant response rating, B. signalgrass",surinam grass; [8],10
same,"Plant response rating, Corn",corn; [1],0
same,"Plant response rating, Corn",corn; [2],3
same,Corn plant response rating,corn; [3],3
same,"Plant response rating, Corn",corn; [4],5
same,Corn plant response rating,corn; [5],0
same,Corn plant response rating,corn; [6],4
same,"Plant response rating, Corn",corn; [7],4
same,"Plant response rating, Corn",corn; [8],5
same,"Plant response rating, Wheat",wheat; [1],0
same,"Plant response rating, Wheat",wheat; [2],0
same,Wheat plant response rating,wheat; [3],0
same,Wheat plant response rating,wheat; [5],0
same,Wheat plant response rating,wheat; [6],0
same,"Plant response rating, Wheat",wheat; [7],0
same,"Plant response rating, Wheat",wheat; [8],0
same,"Plant response rating, Redroot pigweed",pigweed; [1],0
same,"Plant response rating, Redroot pigweed",pigweed; [2],0
same,Redroot pigweed plant response rating,pigweed; [3],0
same,Redroot pigweed plant response rating,pigweed; [5],0
same,Redroot pigweed plant response rating,pigweed; [6],0
same,"Plant response rating, Redroot pigweed",pigweed; [7],6
same,"Plant response rating, Redroot pigweed",pigweed; [8],10
same,"Plant response rating, Rape",rape; [1],0
same,"Plant response rating, Rape",rape; [2],0
same,Rape plant response rating,rape; [3],0
same,"Plant response rating, Rape",rape; [4],0
same,Rape plant response rating,rape; [5],0
same,Rape plant response rating,rape; [6],0
same,"Plant response rating, Rape",rape; [7],0
same,"Plant response rating, Rape",rape; [8],4
